{
  "source": "patent US20090176701A1",
  "about": "“Anti-microbial agents that interact with the complement system” (priority 2005, published 2009)",
  "format_in_all_cases": "cell-based",
  "key": {"[1]": {"system": "E. coli O7:K1(L):NM (ATCC 23503)", "test": "Bacterial killing assay with normal human serum, additional strain", "details": "Table 3, peptide 3 μM, NHS control 5.3", "method": "Peptide #3 was tested for activity at 3 μM on additional strains of E. coli using normal human serum as a control."}, "E. coli O18:K1:H7 [2]": {"system": "E. coli O18:K1:H7", "test": "Bacterial killing assay in 10% blood", "set-up": "CFU / CFU (Range) / CFU 1 hour / CFU 3 hours / CFU 5 hours / CFU 3 hour: scale not given here", "details": "for CFU 1 hour / CFU 3 hours: Table 5, 3000 CFU; for CFU 1 hour: blood 3.4; for CFU 3 hours: blood 4.2; for CFU 5 hours / CFU 3 hour: Table 6; for CFU (Range): Table 9", "method": "TFPI was incubated with α-thrombin, plasmin, elastase and cathepsin G in 10% blood and tested for bacterial killing activity against E. coli O18:K1:H7 as follows. Recombinant TFPI at 5 μM (unless indicated otherwise), was treated with plasmin (100 nM, lane 3) and α-thrombin (100 nM, lane 7; 1 μM, lane 8) (A), elastase (100 nM, lanes 3 and 4) (B), and cathepsin G (100 nM, lane 4; 1 μM, lanes 5, 6 and 7) (C) in a total volume of 180 μl. The reaction contained TFPI diluted in RPMI 1640 without phenol red, 25 mM Hepes, pH 7.5 (RPMI), 3000 CFU E. coli O18:K1:H7 in 40 μl PBS, and diluted enzyme in 20 μl RPMI. The volume was adjusted with RPMI. The samples were pre-incubated for 15-30 minutes before the addition of anti-coagulant-free fresh blood to a final volume of 200 μl. Controls were 10% blood in RPMI, TFPI at 1, 2 and 5 μM, and the enzymes alone at the respective concentrations. The samples were incubated for 4 hours at 37° C. with 5% CO2 in a humidified incubator and serial dilutions plated on Tryptase soy agar plates. The number of bacterial colonies was determined after overnight incubation at 37° C. All experimental conditions are run in duplicate. The data represent the average colony number.\nThe 18 μl aliquots were diluted to 10 μM TFPI with 445 μl RPMI 1640 without phenolred, 25 mM Hepes, pH 7.5 (RPMI) and assayed at a final concentration of 5 μM in 200 μl reactions containing 3000 CFU E. coli in 40 μl PBS, 10% non-coagulated blood, and adjusted to the final volume with RPMI. Negative controls were 10% blood in RPMI, TFPI at 5 μM and cathepsin G at 400 nM. Anti-coagulant free blood was freshly drawn and added to the reaction as the last component. The samples were manipulated as described above.\nPeptides were designed to test for bacterial killing activity localized in the C-terminal domain of TFPI. Activity was measured against Gram negative (E coli O18:K1:H7. ATCC 700973) bacteria in the presence of 10% blood as described above. Controls were RPMI with 10% blood and 100 nM Tifacogin. The biological activity was determined from the reduction of bacterial colonies, as above.\nThe three peptides #1, #2, & #3 were diluted in H2O to 10 fold their final assay concentration and incubated with bacteria for 4 hours, at the final concentrations of 3 μM, 300 nM 100 nM and 10 nM. E. coli was used at 3000 CFU/200 μl. Surviving colony numbers were determined as described in Example 1. […] Full-length TFPI has no activity against Gram negative bacteria in these assays at the concentrations tested.\nTime-dependency: Peptides were incubated with 3000 CFU E. coli O18:K1:H7 at the indicated final concentrations in the presence of 10% blood in three parallel 200 μl reactions as described above. RPMI with 10% blood was used as negative control. After incubation for 1, 3, or 5 hours samples were assayed for the effect on bacterial survival by plating serial dilutions onto agar plates. […] The effect of peptides on bacterial survival increases over the time-span studied.\nIn these experiments, variable concentrations of E. coli O18:K1:H7 (3×10^3, 3×10^4 or 3×10^5 CFU/200 μl) were challenged with either 3 μM or 100 nM peptide #3 in RPMI/10% blood, and incubated for 3 or 5 hours before dilution and plating. Briefly, the bacteria were diluted to the indicated CFU in 40 μl PBS, the reactions assembled at a final volume of 200 μl as above, and incubated at 37° C. Serial dilutions of the reactions were plated and the colony number determined after overnight incubation. […] At 5 hours no effect on the high CFU culture was discernable, indicating a titration of the killing activity and the high CFU culture exceeding the capacity."}, "E. coli O18:K1:H7 [3]": {"system": "E. coli O18:K1:H7", "test": "Bacterial killing assay in serum or plasma (complement dependence)"}, "E. coli O18:K1:H7 [4]": {"system": "E. coli O18:K1:H7", "test": "Bacterial killing assay without blood (growth medium)", "details": "Table 4; no blood, peptide 3 μM; growth medium 6.2", "method": "Peptides #1, #3 and #4 were tested for their activity without blood on E. coli O18:K1:H7. The peptides were assayed at 3 μM. The same blood and TFPI controls were included as in Experiment I."}},
  "data": [
    {"sequence": "GFIQRISKGGLIKTKRKRKKQRVKIAY (homo sapiens) [Peptide #3, TFPI aas 242-268]", "values": [
      {"measurement": "CFU", "setting": "[1]", "value": 2.9},
      {"measurement": "activity against O18ac:K1:H7 E. coli strain in blood", "setting": "E. coli O18:K1:H7 [2]; 10% blood, 4 hours, concentrations tested 10 nM to 3 μM, peptide #5 compared to peptide #3", "value": "active"},
      {"measurement": "CFU", "setting": "E. coli O18:K1:H7 [2]; Table 1, peptide 300 nM, 10% blood, 3000 CFU/200 μl, 4 hours, blood control 5.1", "value": 2.2},
      {"measurement": "CFU", "setting": "E. coli O18:K1:H7 [2]; Table 2, peptide 10 nM, 10% blood, blood control 3.5", "value": 2.6},
      {"measurement": "CFU", "setting": "E. coli O18:K1:H7 [2]; Table 2, peptide 100 nM, 10% blood, blood control 3.5", "value": 1.2},
      {"measurement": "CFU 1 hour", "setting": "E. coli O18:K1:H7 [2]; 300 nM, 10% blood", "value": 3.3},
      {"measurement": "CFU 3 hours", "setting": "E. coli O18:K1:H7 [2]; 300 nM, 10% blood", "value": 1.2},
      {"measurement": "CFU 1 hour", "setting": "E. coli O18:K1:H7 [2]; 3 μM, 10% blood", "value": 3.2},
      {"measurement": "CFU 3 hours", "setting": "E. coli O18:K1:H7 [2]; 3 μM, 10% blood", "value": 0.2},
      {"measurement": "CFU 5 hours", "setting": "E. coli O18:K1:H7 [2]; 3000 bacteria, 100 nM, blood alone 3.4", "value": 1.2},
      {"measurement": "CFU 3 hour", "setting": "E. coli O18:K1:H7 [2]; 3000 bacteria, 100 nM, blood alone 3.9", "value": 2.3},
      {"measurement": "CFU 3 hour", "setting": "E. coli O18:K1:H7 [2]; 30,000 bacteria, 100 nM, blood alone 5.1", "value": 1.5},
      {"measurement": "CFU 5 hours", "setting": "E. coli O18:K1:H7 [2]; 30,000 bacteria, 100 nM, blood alone 6.3", "value": 4.1},
      {"measurement": "CFU 3 hour", "setting": "E. coli O18:K1:H7 [2]; 30,000 bacteria, 3 μM, blood alone 5.1", "value": 1.1},
      {"measurement": "CFU 5 hours", "setting": "E. coli O18:K1:H7 [2]; 30,000 bacteria, 3 μM, blood alone 6.3", "value": 3.6},
      {"measurement": "CFU 3 hour", "setting": "E. coli O18:K1:H7 [2]; 300,000 bacteria, 100 nM, blood alone 7.7", "value": 7.5},
      {"measurement": "CFU 5 hours", "setting": "E. coli O18:K1:H7 [2]; 300,000 bacteria, 100 nM, blood alone 8.4", "value": 9.1},
      {"measurement": "CFU 3 hour", "setting": "E. coli O18:K1:H7 [2]; 300,000 bacteria, 3 μM, blood alone 7.7", "value": 5.8},
      {"measurement": "CFU 5 hours", "setting": "E. coli O18:K1:H7 [2]; 300,000 bacteria, 3 μM, blood alone 8.4", "value": 9.1},
      {"measurement": "CFU", "setting": "E. coli O18:K1:H7 [2]; Table 7, blood at 20 μl, digested rTFPI 5 μM, peptide #3 in parallel, control 4.1", "value": 1.5},
      {"measurement": "CFU (Range)", "setting": "E. coli O18:K1:H7 [2]; peptide 3 μm, Heparin, 3 U/mL", "value": 5.5},
      {"measurement": "CFU (Range)", "setting": "E. coli O18:K1:H7 [2]; peptide 3 μm, LMW heparin, 0.3 U/mL", "value": "4.2 (4.1-4.2)"},
      {"measurement": "CFU (Range)", "setting": "E. coli O18:K1:H7 [2]; peptide 3 μm, LMW heparin, 3 U/mL", "value": "5.2 (5.2-5.3)"},
      {"measurement": "bacterial killing activity with un-fractionated heparin", "setting": "E. coli O18:K1:H7 [2]; peptide 3 μm, un-fractionated heparin at 0.3 U/ml, data not shown", "value": "partial loss of bacterial killing activity"},
      {"measurement": "bacterial killing activity in CVF-treated serum", "setting": "E. coli O18:K1:H7 [3]; FIG. 8C, 1 U/ml CVF", "value": "still preserved"},
      {"measurement": "bacterial killing activity in CVF-treated serum", "setting": "E. coli O18:K1:H7 [3]; FIG. 8C, serum treated with 10 U/ml of CVF", "value": "lost"},
      {"measurement": "bacterial killing activity in serum", "setting": "E. coli O18:K1:H7 [3]; FIG. 8C, untreated serum or serum incubated 30 minutes at room temperature without CVF", "value": "active"},
      {"measurement": "bacterial killing activity in serum (rank)", "setting": "E. coli O18:K1:H7 [3]; FIG. 8D, peptides serially diluted to 300 nM, and 30 nM in serum", "value": "strongest effect"},
      {"measurement": "bacterial killing activity in C4-deficient serum", "setting": "E. coli O18:K1:H7 [3]; FIG. 9, C4-deficient guinea pig serum", "value": "completely devoid of bacterial killing activity"},
      {"measurement": "bacterial killing activity in complement-depleted sera", "setting": "E. coli O18:K1:H7 [3]; FIG. 9, serum depleted for C1q, C3, C6, C2, C9, or deficient for C4", "value": "loss"},
      {"measurement": "bacterial killing activity after add-back of complement factor", "setting": "E. coli O18:K1:H7 [3]; FIGS. 9 C and D, purified C1 complex (2.34 μg) or factor C4 (6 μg) added back to the respective depleted/deficient serum", "value": "restored"},
      {"measurement": "CFU", "setting": "E. coli O18:K1:H7 [3]; Table 7, serum at 40 μl, digested rTFPI 5 μM, peptide #3 in parallel, control 4.2", "value": 1.2},
      {"measurement": "CFU", "setting": "E. coli O18:K1:H7 [3]; Table 8, Serum + 5 mM MgC12, 10 mM EDTA, control 4.4", "value": 4.2},
      {"measurement": "bacterial killing activity in chelated serum", "setting": "E. coli O18:K1:H7 [3]; serum containing 10 mM EGTA and 5 mM MgCl2", "value": "no bacterial killing activity"},
      {"measurement": "CFU (Range)", "setting": "E. coli O18:K1:H7 [4]", "value": "6.2 (6.1-6.2)"}
    ]}
  ]
}
